The numbers were not newly measured in US20220184108A1, “PHARMACEUTICAL AND NUTRITIONAL COMPOSITION TO MAXIMIZE NAD ENZYME'S HEALTH BENEFITS” (East West Products Corp., priority 2020, published 2022), which cites them from elsewhere.

Where only a bound is given, the exact number is not on record here.

In one series the target is T1, Slc12a8 NMN transporter (Mus musculus, UniProt Q8VI23).
T1 sequence (Q8VI23 1-705): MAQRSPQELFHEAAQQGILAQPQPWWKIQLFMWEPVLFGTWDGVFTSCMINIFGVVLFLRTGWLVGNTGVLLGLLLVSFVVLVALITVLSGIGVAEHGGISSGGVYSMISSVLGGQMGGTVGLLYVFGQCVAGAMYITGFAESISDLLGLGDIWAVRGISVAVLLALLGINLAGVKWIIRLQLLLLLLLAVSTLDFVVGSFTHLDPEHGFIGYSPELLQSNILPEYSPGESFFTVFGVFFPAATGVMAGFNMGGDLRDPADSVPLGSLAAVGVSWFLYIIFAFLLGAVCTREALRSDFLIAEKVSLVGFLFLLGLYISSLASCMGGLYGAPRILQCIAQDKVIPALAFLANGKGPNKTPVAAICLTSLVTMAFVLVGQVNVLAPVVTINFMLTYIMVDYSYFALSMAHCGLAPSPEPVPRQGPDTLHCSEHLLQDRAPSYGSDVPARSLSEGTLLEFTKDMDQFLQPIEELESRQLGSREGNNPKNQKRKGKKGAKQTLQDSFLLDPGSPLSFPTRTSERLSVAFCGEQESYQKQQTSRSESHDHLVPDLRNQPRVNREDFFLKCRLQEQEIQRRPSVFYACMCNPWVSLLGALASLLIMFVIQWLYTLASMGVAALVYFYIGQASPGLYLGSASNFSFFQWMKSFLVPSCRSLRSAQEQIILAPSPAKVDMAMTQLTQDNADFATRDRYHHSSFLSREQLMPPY
As to conditions: mice; through the Slc12a8 NMN transporter.

For series [1] the following is noted: doses of up to 500 mg; human study, Keio University School of Medicine.

`NC(=O)c1ccc[n+]([C@@H]2O[C@H](COP(=O)([O-])O)[C@@H](O)[C@H]2O)c1` [NMN, Nicotinamide mononucleotide]: the “time for NMN to enter cells via the small intestines converting to NAD+” value at Slc12a8 NMN transporter is at most 10 min. Also, the safety in men entry in series [1] is “safe”.
